Measured values from ChEMBL document CHEMBL4400564, “Structure-activity relationship studies of Bz amide-containing α-GalCer derivatives as natural killer T cell modulators” (Bioorg Med Chem Lett, 2019).
Activity calls are given as the source filed them.

Columns and labels:
[1] = system: Splenocyte; test: Reduction of IFN-gamma production in C57BL/6J mouse splenocyte at 1 to 100 nM after 48 hrs by ELISA relative to alpha-GalCer; assay type: functional, cell-based
[2] = biological target: T1, Antigen-presenting glycoprotein CD1d1 (Mus musculus) (UniProt P11609); test: Binding affinity to Ig-tagged mouse CD1d assessed as increase in IL-2 production in NKT hybridoma cells exposed to 24 hrs pre-treated compound/CD1d mixture and measured after 48 hrs by ELISA based APC free assay; assay type: cell-based
T1 sequence (whole entry): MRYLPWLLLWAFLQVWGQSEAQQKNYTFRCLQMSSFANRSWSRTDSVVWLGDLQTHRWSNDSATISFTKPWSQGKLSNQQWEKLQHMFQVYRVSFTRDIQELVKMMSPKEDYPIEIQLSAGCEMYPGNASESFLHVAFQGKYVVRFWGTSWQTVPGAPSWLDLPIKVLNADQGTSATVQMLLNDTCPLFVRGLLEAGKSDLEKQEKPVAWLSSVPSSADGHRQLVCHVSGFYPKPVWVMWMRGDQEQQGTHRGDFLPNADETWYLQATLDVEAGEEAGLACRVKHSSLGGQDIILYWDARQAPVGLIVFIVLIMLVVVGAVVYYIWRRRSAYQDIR

[3] = system: Splenocyte; test: Induction of IL-4 production in C57BL/6J mouse splenocyte at 1 to 100 nM after 48 hrs by ELISA relative to alpha-GalCer; assay type: functional, cell-based

Measured: Activity

CCCCCCCCCCCCCC[C@@H](O)[C@@H](O)[C@H](CO[C@H]1O[C@H](CO)[C@H](O)[C@H](O)[C@H]1O)NC(=O)CCCCCCCCCCCNC(=O)C1CCNCC1
active: [1] | [2] Dose-dependent effect | [3]

CCCCCCCCCCCCCC[C@@H](O)[C@@H](O)[C@H](CO[C@H]1O[C@H](CO)[C@H](O)[C@H](O)[C@H]1O)NC(=O)CCCCCCCCCCCNC(=O)c1ccccc1F
active: [1] | [2] Dose-dependent effect | [3]

CCCCCCCCCCCCCC[C@@H](O)[C@@H](O)[C@H](CO[C@H]1O[C@H](CO)[C@H](O)[C@H](O)[C@H]1O)NC(=O)CCCCCCCCCCCNC(=O)c1cccc(OC)c1
active: [1] | [2] Dose-dependent effect | [3]

CCCCCCCCCCCCCC[C@@H](O)[C@@H](O)[C@H](CO[C@H]1O[C@H](CO)[C@H](O)[C@H](O)[C@H]1O)NC(=O)CCCCCCCCCCCNC(=O)c1ccc(F)cc1
active: [1] | [2] Dose-dependent effect | [3]

CCCCCCCCCCCCCC[C@@H](O)[C@@H](O)[C@H](CO[C@H]1O[C@H](CO)[C@H](O)[C@H](O)[C@H]1O)NC(=O)CCCCCCCCCCCNC(=O)c1ccccc1OC
active: [1] | [2] Dose-dependent effect | [3]

CCCCCCCCCCCCCC[C@@H](O)[C@@H](O)[C@H](CO[C@H]1O[C@H](CO)[C@H](O)[C@H](O)[C@H]1O)NC(=O)CCCCCCCCCCCNC(=O)c1cccc(F)c1
active: [1] | [2] Dose-dependent effect | [3]

CCCCCCCCCCCCCC[C@@H](O)[C@@H](O)[C@H](CO[C@H]1O[C@H](CO)[C@H](O)[C@H](O)[C@H]1O)NC(=O)CCCCCCCCCCCNC(=O)C1CCCCC1
active: [1] | [2] Dose-dependent effect | [3]

CCCCCCCCCCCCCC[C@@H](O)[C@@H](O)[C@H](CO[C@H]1O[C@H](CO)[C@H](O)[C@H](O)[C@H]1O)NC(=O)CCCCCCCCCCCNC(=O)c1ccccc1
active: [1] | [2] Dose-dependent effect | [3]

CCCCCCCCCCCCCC[C@@H](O)[C@@H](O)[C@H](CO[C@H]1O[C@H](CO)[C@H](O)[C@H](O)[C@H]1O)NC(=O)CCCCCCCCCCCNC(=O)c1ccc(OC)cc1
active: [1] | [2] Dose-dependent effect | [3]

CCCCCCCCCCCCCC[C@@H](O)[C@@H](O)[C@H](CO[C@H]1O[C@H](CO)[C@H](O)[C@H](O)[C@H]1O)NC(=O)CCCCCCCCCCCNC(=O)C(C)(C)C
active: [1] | [2] Dose-dependent effect | [3]
